{"source": "patent US9464106B2", "about": "“Oligonucleotides useful for detecting and analyzing nucleic acids of interest” (Exiqon A/S, priority 2002, dated 2016)", "key": {"[1]": {"system": "DNA target 3′-d(CACTYTACG)", "conditions": "data reported earlier; cited from earlier work"}, "[2]": {"system": "DNA target 3′-d(CACTYTACG)", "assay": "Thermal denaturation of ON1-ON11 towards DNA complements", "assay_type": "binding", "conditions": "1.5 μM of the two strands"}, "[3]": {"system": "C. elegans genes relevant for general stress response and metabolism of toxic compounds"}, "[4]": {"system": "human chromosome 21 alphaRI (680) locus alpha-satellite repeat", "assay": "FISH with chromosome-21 specific centromere LNA probes", "assay_type": "binding", "conditions": "40 min. hybridization at RT"}, "human telomere repeat": {"system": "human telomere repeat", "assay": "FISH with human telomere repeat LNA probe", "assay_type": "binding", "conditions": "5 pmoles probe, 30 min. hybridization at 37° C.", "description": "Chromosome preparations were made by standard methods from peripheral lymphocyte cultures of two normal males. Slides were prepared 1-6 days prior to an experiment and treated with RNAse (10 μg/μl) at 37° C. for one hour before hybridization. […] FISH was carried out as described previously (Silahtaroglu et al, 1998) with the following modifications. […] Slides were washed after 30 min. hybridization at 37° C. Post washing steps included a 2×5 min 0.1×SSC at 60° C.; 5 min 2×SSC at 37° C.; 3 min 4×SSC/0.05% Tween20 at 37° C. and 5 min PBS. […] The whole procedure was carried out in the dark. The signals were visualized using a Leica DMRB epifluorescence microscope equipped with a SenSys charge-coupled device camera (Photometrics, Tucson, Ariz.), and IPLAB Spectrum Quips FISH software (Applied Imaging international Ltd., Newcastle, UK)."}, "[5]": {"conditions": "C. elegans, incubation 24 hours"}}, "note": "Read-outs that look alike come from different tables or passages of the source. l = locked nucleic acid (LNA); {Biotin} = biotin label; d = 2'-deoxy (DNA)", "data": [{"compound": "5′-d(GTGATATGC) [ON1]", "values": [{"measurement": "Tm, Y = A", "setting": "[1]", "result": 28, "unit": "°C"}, {"measurement": "Tm, Y = C", "setting": "[1]", "result": 11, "unit": "°C"}, {"measurement": "Tm, Y = G", "setting": "[1]", "result": 12, "unit": "°C"}, {"measurement": "Tm, Y = T", "setting": "[1]", "result": 19, "unit": "°C"}]}, {"compound": "5′-d[2′-OMe(GTGATATGC)] [ON5, reference compound]", "values": [{"measurement": "Tm, Y = A", "setting": "[2]; 10 mM sodium phosphate, 100 mM sodium chloride, 0.1 mM EDTA, pH 7.0", "result": 35, "unit": "°C"}, {"measurement": "Tm, Y = C", "setting": "[2]; medium salt buffer", "result": 14, "unit": "°C"}, {"measurement": "Tm, Y = G", "setting": "[2]; medium salt buffer", "result": 19, "unit": "°C"}, {"measurement": "Tm, Y = T", "setting": "[2]; medium salt buffer", "result": 21, "unit": "°C"}]}, {"compound": "Cc1c(OCC(F)(F)F)ccnc1C[S+]([O-])c1nc2ccccc2[nH]1", "note": "(stereo not drawn) [Lansoprazole]", "values": [{"measurement": "Log2 transformed fold of change, HSP90 (C47E8.5)", "setting": "[3]; [5]", "result": "−1.17"}, {"measurement": "Log2 transformed fold of change, Ubiquitin (M7.1)", "setting": "[3]; [5]", "result": "−0.12"}, {"measurement": "Log2 transformed fold of change, CYP37A (F01D5.9)", "setting": "[3]; in vivo", "result": 0.98}]}, {"compound": "Nc1ncc2ncn([C@@H]3O[C@@]4(CO)CO[C@@H]3[C@@H]4O)c2n1", "note": "[compound 23, (1S,3R,4R,7S)-3-(2-aminopurin-9-yl)-7-hydroxy-1-hydroxymethyl-2,5-dioxabicyclo[2.2.1]heptane]", "values": [{"measurement": "melting point", "result": "227.5 to 229 °C (dec.)"}]}, {"compound": "TgTgTaCcCaGcCaAaGgAgTtGa (TGTGTACCCAGCCAAAGGAGTTGA; sugars from the 5' end ldldldldldldldldldldldld, 5' {Biotin}, backbone and methylation of C not given here) [5′ biotin-labelled 24-mer FISH probe]", "values": [{"measurement": "FISH signals on chromosomes", "setting": "[4]", "result": "prominent signals both on chromosomes 13 and 21"}]}, {"compound": "aCcCaGcCaAaGgAg (ACCCAGCCAAAGGAG; sugars from the 5' end dldldldldldldld, 5' {Biotin}, backbone and methylation of C not given here) [5′ biotin-labelled 15-mer FISH probe]", "values": [{"measurement": "FISH signals on chromosomes", "setting": "[4]", "result": "prominent signals on chromosome 21"}]}, {"compound": "ttagggttagggttagggttaggg [human telomere repeat specific LNA oligonucleotide probe] (TTAGGGTTAGGGTTAGGGTTAGGG)", "values": [{"measurement": "FISH signals on telomeres", "setting": "human telomere repeat", "result": "prominent signals on the telomeres"}]}]}
